From patent US9180160B2, “Complement inhibitors for treatment of injury from intracerebral hemorrhage” (The Trustees of the University of Pennsylvania, priority 2008, dated 2015)
Several values for one entry are separate records, joined by “and”; a condition that tells them apart may be missing. Identical values can stand only once. Entries after “also recorded” stand apart in the source; their conditions may differ.

Experiments:
[1] = test system: C57BL/6J mice subjected to ICH; assay: Corner turn test (laterality index) after ICH; assay type: in vivo; details: for corner turn test (laterality index): 1 mg/kg i.p. first at 6 h and 12 h after ICH, then twice daily for 72 hours, versus vehicle
Description: (§1) Animal Preparation and Intracerebral Infusion. Adult male C57BL/6J mice weighing 23-30 g were used. Mice were randomized to receive intraperitoneal injection of either C3aRA (1 mg/kg) (SB290157, Calbiochem, Darmstadt, Germany) diluted in PBS and DMSO (1.16% v/v), or an equal volume of vehicle (PBS and DMSO, 1.16% DMSO v/v) either 45 minutes prior to ICH induction or 6 and 12 hours after induction of ICH, followed in both cohorts by twice daily doses for 72 hours. […] Sham animals were given PBS and DMSO (1.16% v/v) in the same manner.
Mice were anesthetized with a single intraperitoneal dose of ketamine (90 mg/kg) and xylazine (5 mg/kg). Next, the mice were placed in a stereotactic frame (ASI Instruments, Inc., Warren, Mich., USA) and subjected to ICH using autologous blood infusion as previously described (Rynkowski M A et al, 2008, Nat Protoc 3: 122-128), Briefly, a 1-mm burr hole was drilled 2.3 mm lateral to the midline and 0.2 mm anterior to the bregma. Thirty μL of autologous whole blood were drawn from the tail artery into a capillary tube. A 30-gauge needle was then advanced stereotactically through the burr hole into the right striatum (coordinates: 0.2 mm anterior, 2.3 mm lateral to the bregma, 3.5 mm ventral). […]
Neurofunction and behavioral testing. Sensorimotor function was evaluated by means of the 28-point neurological function score, corner test and forelimb placing tests, which were performed pre-operatively and at 6, 24, 48 and 72 hour post-injury. Navigational memory was evaluated with the means of a Morris water-maze (MWM) test pre-operatively and at 72 hours post ICH. […]
Corner test. […] The number of right and left turns out of 10 total attempts was recorded. The laterality index (LI) and normalized LI were calculated. The laterality index (LI) was calculated for each mouse, according to the formula: LI=(Number of right turns—Number of left turns)/(Total number of turns). The LI for the day before surgery (LIBS) and each of the post surgery days was calculated and normalized using the formula: Normalized LI=(LI+2)/(LIBS+2). […]

[2] = test system: C57BL/6J mice subjected to ICH; assay: Brain water content (edema) after ICH; assay type: in vivo; details: for brain water content versus vehicle: 1 mg/kg i.p. first at 6 h and 12 h after ICH
Description: as §1
Mice were anesthetized with a single intraperitoneal dose of ketamine (90 mg/kg) and xylazine (5 mg/kg). Next, the mice were placed in a stereotactic frame (ASI Instruments, Inc., Warren, Mich., USA) and subjected to ICH using autologous blood infusion as previously described (Rynkowski M A et al, 2008, Nat Protoc 3: 122-128), Briefly, a 1-mm burr hole was drilled 2.3 mm lateral to the midline and 0.2 mm anterior to the bregma. Thirty μL of autologous whole blood were drawn from the tail artery into a capillary tube. A 30-gauge needle was then advanced stereotactically through the burr hole into the right striatum (coordinates: 0.2 mm anterior, 2.3 mm lateral to the bregma, 3.5 mm ventral). Using a microinfusion pump (KDS220, KD Scientific Inc., Holliston, Mass., USA), 5 μL was delivered at a rate of 1.5 μL per minute. After a 7-minute period, an additional 25 μL was delivered at a constant rate of 1.5 μL per minute. After a period of 10 minutes, the needle was slowly removed, the burr hole was occluded with bone wax and the skin incision was closed with Nexaband® (Abbott Laboratories, North Chicago, Ill.). Sham animals received only needle insertion. Rectal temperature was maintained at 37.0° C. using a feedback-controlled heating lamp, and the animals recovered in a temperature-controlled incubator for 45 minutes post-procedure.
Determination of brain water content. Mice were reanesthetized with Ketamine (80-100 mg/kg i.p.), Xylazine (5-10 mg/kg i.p.) and sacrificed 3 days post-hemorrhage to determine brain water content (sham vehicle n=8 Pre-C3aRA n=8, Post-C3aRA n=11). Brains were removed immediately en bloc and five 2-mm coronal slices were obtained beginning 2-mm from the frontal pole. The brain slices were divided into two hemispheres along the midline. The cortex of each hemisphere was then carefully dissected from the basal ganglia. The cerebellum was retained as a control. Each of the five sections was then weighed on an electronic analytical balance (Model AG 104, Mettler-Toledo, Inc., Columbus, Ohio, USA) to determine the wet weight. The sections were then placed onto pre-weighed cover slips and dried overnight in a vacuum oven for 24 hours to obtain the dry weight. Brain water content (%) was calculated as: ((wet weight-dry weight)/wet weight)×100.
Animal Preparation and Intracerebral Infusion. Adult male C57BL/6J mice weighing 23-30 g were randomized to receive intraperitoneal injection of either C3aRA (1 mg/kg) (SB290157, Calbiochem, Darmstadt, Germany), C5aRA (1 mg/kg), combined C3aRA and C5aRA or an equal volume of DMSO. Each drug was diluted in PBS (1.16% v/v) and given 6 and 12 hours after ICH induction, followed by twice daily doses for 72 hours. The sham group of animals was given PBS and DMSO (1.16% v/v) in the same manner. Mice were anesthetized with a single intraperitoneal dose of ketamine (90 mg/kg) and xylazine (5 mg/kg). […]

[3] = 1 mg/kg i.p. 45 minutes prior to ICH, then twice daily, 72 hours after ICH, mean±SEM
[4] = then twice daily, 72 hours after ICH

| Compound | corner test performance (normalized laterality index) ([1]; 1 mg/kg i.p. 45 minutes prior to ICH, then twice daily, 72 hours after ICH) | corner turn test (laterality index) [1] | brain water content, ipsilateral basal ganglia [2, 3] [%] | brain water content, ipsilateral cortex [2, 3] | brain water content versus vehicle [2, 4] | water content in the contralateral cortex, the basal ganglia and cerebellum ([2]; pre-ICH dosing 1 mg/kg i.p., 72 hours, versus vehicle-treated and sham) |
| --- | --- | --- | --- | --- | --- | --- |
| NC(N)=NCCC[C@H](NC(=O)COCC(c1ccccc1)c1ccccc1)C(=O)O [C3aRA] | no significant deficits compared with sham animals | significant improvement at 48 hours | 77.43±0.43 | 77.56±0.26% and 77.57±0.26% | mildly decreased brain water content; also recorded: Trend towards decreased edema | not different |
| Acetyl-Phe-[Orn-Pro-D-cyclohexylalanine-Trp-Arg] [C5aRA] | – | significant improvement at 48 hours | – | – | mildly decreased brain water content | – |
